Data: patent US11905504B2, “Body cube and process for culturing tissue” (Government of the United States of America, as represented …, priority 2020, dated 2024)
“Also recorded” adds a separate entry of the source.

Assays:
HepG2/C3A liver cells [1] = format: cell-based
Description: After 24 h, the cell-loaded 3D scaffolds were aseptically transferred into the tissue chambers of the appropriate tissues chip. The chips were then placed on top of each other, so that the back of one tissue chamber closed the opening of the tissue chip below it. The tissue chip stack was then inserted into the holder. The two reservoirs of the cube were filled with 32.5 μL of EMEM (containing a volume fraction of 10% FBS) each, and the device was placed onto a rocker platform that tilted back and forth at an angle of 45°. The platform changed its tilt from 45° to −45° every 60 s continuously for 72 h. Culture medium was collected and replaced with fresh medium after 1 h, 16 h, 24 h, 40 h, 48 h, and 64 h. The total amount of blood surrogate (i.e. the amount of cell culture medium that we consider blood surrogate) inside the system consisted of 2×32.5 μL (medium in the reservoirs), plus 15 μL (medium inside the microfluidic channels that deliver medium to the tissue culture chambers).
To estimate cell death during co-culture, we measured AST concentrations in the cell culture medium recovered from the devices after 1 h, 16 h, 40 h and 64 h of co-culture. The AST activity was measured with an assay kit. Briefly, standard samples and medium samples were added to the 96 well plate. We then added 100 μL of working solution to each well and mixed both solutions by gently tapping the plate. The plate was then incubated inside a plate reader in the dark, at 37° C. […] We then selected the initial absorbance value inside the linear range and calculated the AST concentrations using the protocol given in the kit. The results are expressed as μg per million cells produced in relation to a 1 h baseline measurement.
Similar to the baseline experiments described above, we recovered cell cultures after 72 h of co-culture from the device.

HepG2/C3A liver cells [2] = test: Urea production in collected cell culture medium of the body cube; format: cell-based, human
HepG2/C3A liver cells [3] = test: Albumin synthesis by ELISA in cell culture medium of the body cube; format: cell-based, human; conditions: drugs added to the cube; compared to control without drug
HepG2/C3A liver cells [4] = test: Cell viability stain of liver cells after 72 h co-culture in the body cube; format: cell-based, human; conditions: 72 h four-tissue co-culture in body cube, 80 μL recirculating medium; compared to control without drug

## Cc1c(C)c2c(c(C)c1O)CCC(C)(COc1ccc(CC3SC(=O)NC3=O)cc1)O2 (stereo not shown) [troglitazone]
HepG2/C3A liver cells [1]; after 40 h of exposure
  cytosolic enzymes released vs cultures not exposed to drugs: significantly larger amounts
HepG2/C3A liver cells [1]; after 48 h
  cytosolic enzyme concentration in the medium vs control cultures: similar
HepG2/C3A liver cells [1]; body cube co-culture, compared to control without drug
  AST in the cell culture medium: significantly higher; also recorded: temporary increase of AST
HepG2/C3A liver cells [2]; body cube co-culture challenged with drug
  metabolic activity of the tissues: decrease in metabolic activity
HepG2/C3A liver cells [2]; drugs added to the cube, compared to control without drug
  urea production: decreased
HepG2/C3A liver cells [3]
  albumin production: not albumin production was decreased
HepG2/C3A liver cells [4]
  cell viability in the liver chamber (viability stain, fluorescence images): significant liver damage; also recorded: expected cell death; also recorded: significantly lowered cell viability
